From article PMC3975886, “Structural characteristics of an insect group I chitinase, an enzyme indispensable to moulting” (Acta Crystallographica Section D: Biological Crystallography, 2014)

Molecular target: OfChtI-CAD (Ostrinia furnacalis, UniProt Q2V6H4, E148Q)
Assay: isothermal titration calorimetry, single-site model
Format: binding
Details: 50 mM HEPES pH 8.0, 303 K
Description: isothermal titration calorimetry, single-site model on OfChtI-CAD

Sequence of OfChtI-CAD (Q2V6H4 19-407, stated change not applied): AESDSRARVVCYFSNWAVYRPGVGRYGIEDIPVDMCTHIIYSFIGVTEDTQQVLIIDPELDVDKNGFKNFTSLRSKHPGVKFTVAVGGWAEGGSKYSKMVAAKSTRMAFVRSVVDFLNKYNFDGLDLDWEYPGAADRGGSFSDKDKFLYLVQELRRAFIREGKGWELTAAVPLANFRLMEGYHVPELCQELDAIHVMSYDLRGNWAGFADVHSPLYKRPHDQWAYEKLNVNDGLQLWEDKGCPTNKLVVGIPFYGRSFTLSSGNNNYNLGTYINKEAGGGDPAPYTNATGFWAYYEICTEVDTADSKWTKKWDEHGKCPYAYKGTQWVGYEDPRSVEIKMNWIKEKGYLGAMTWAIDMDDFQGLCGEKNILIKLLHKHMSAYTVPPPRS

SMILES | Kd [µM]
CC(=O)N[C@H]1[C@H](O[C@H]2[C@H](O)[C@@H](NC(C)=O)C(O)O[C@@H]2CO)O[C@H](CO)[C@@H](O[C@@H]2O[C@H](CO)[C@@H](O[C@@H]3O[C@H](CO)[C@@H](O)[C@H](O)[C@H]3NC(C)=O)[C@H](O)[C@H]2NC(C)=O)[C@@H]1O (stereo partly drawn) [(GlcNAc)4] | 11.3 ± 1.5
CC(=O)N[C@H]1[C@H](O[C@H]2[C@H](O)[C@@H](NC(C)=O)[C@H](O[C@H]3[C@H](O)[C@@H](NC(C)=O)C(O)O[C@@H]3CO)O[C@@H]2CO)O[C@H](CO)[C@@H](O[C@@H]2O[C@H](CO)[C@@H](O[C@@H]3O[C@H](CO)[C@@H](O)[C@H](O)[C@H]3NC(C)=O)[C@H](O)[C@H]2NC(C)=O)[C@@H]1O (stereo partly drawn) [(GlcNAc)5] | 2 ± 0.2
CC(=O)N[C@H]1[C@H](O[C@H]2[C@H](O)[C@@H](NC(C)=O)[C@H](O[C@H]3[C@H](O)[C@@H](NC(C)=O)C(O)O[C@@H]3CO)O[C@@H]2CO)O[C@H](CO)[C@@H](O[C@@H]2O[C@H](CO)[C@@H](O[C@@H]3O[C@H](CO)[C@@H](O[C@@H]4O[C@H](CO)[C@@H](O)[C@H](O)[C@H]4NC(C)=O)[C@H](O)[C@H]3NC(C)=O)[C@H](O)[C@H]2NC(C)=O)[C@@H]1O (stereo partly drawn) [(GlcNAc)6, N′,N′′,N′′′,N′′′′,N′′′′′, N′′′′′′-hexaacetylchitohexaose] | 0.48 ± 0.09
